Assay results as given in patent publication US20240398759A1, “INHIBITING SEROTONIN TRANSPORTER PROTEIN (5-HTT)” (priority 2022, published 2024).
Where two headings read alike, the source gives them in different places.

Columns and labels:
PDE4B2 = PDE4B2 (Homo sapiens (Human), UniProt Q07343); test: PDE4 inhibition assay (fluorescence polarization), PDE4B2; type: biochemical
Experimental: (§1) 100 μM dilutions of the test compounds were prepared in assay buffer (10% DMSO concentration) and 5 μl of the dilution was added to a 50 μl reaction so that the final concentration of DMSO is 1% in all of reactions. The enzymatic reactions were conducted at room temperature for 60 minutes in a 50 μl mixture containing PDE assay buffer, 100 nM FAM-cAMP, a PDE enzyme (Table 2.3.1) and the test compound (Section 2.2). After the enzymatic reaction, 100 μl of a binding solution (1:100 dilution of the binding agent with the binding agent diluent) was added to each reaction and the reaction was performed at room temperature for 60 minutes. Fluorescence intensity was measured at an excitation of 485 nm and an emission of 528 nm using a Tecan Infinite M1000 microplate reader.
(§2) • 1) Dilute 20 μM FAM-Cyclic-3′, 5′-AMP stock 100-fold with PDE buffer to make a 200 nM solution. • 2) Add 25 μl of FAM-Cyclic-3′,5′-AMP (200 nM) to each well designated “Positive Control”, “Test Inhibitor”, and “Substrate Control”. • 3) Add 20 μl of PDE assay buffer to each well designated “Substrate Control” and 45 μl of PDE assay buffer to each well designated “Blank”. • 4) Add 5 μl of inhibitor solution to each well designated “Test Inhibitor”. For the wells labeled “Positive Control”, “Substrate Control” and “Blank”, add 5 μl of the same solution without inhibitor (inhibitor buffer). • 5) Thaw PDE on ice. Upon first thaw, briefly spin tube containing enzyme to recover the full contents of the tube. • 6) Dilute PDE4 in PDE buffer to 7.5 pg/μl (0.15 ng/reaction)*. Initiate reaction by adding 20 µl of PDE4 (7.5 pg/μl) to the wells designated “Positive Control” and “Test Inhibitor.” • 7) Incubate at room temperature for 1 hour.
(§3) • 1) Mix binding agent thoroughly and dilute binding agent 1:100 with binding agent diluent. • 2) Add 100 μl diluted binding agent to each microwell. Incubate at room temperature for 1 hour with slow shaking. • 3) Read the fluorescent polarization of the sample in a microtiter-plate reader equipped for the measurement of fluorescence polarization, capable of excitation at wavelengths ranging from 485±5 nm and detection of emitted light ranging from 528±10 nm. Blank value is subtracted from all other values. • 4) Data Analysis: PDE activity assays were performed in duplicate at each concentration. Fluorescence intensity is converted to fluorescence polarization using the Tecan Magellan6 software. The fluorescence polarization data were analyzed using the computer software, Graphpad Prism. The fluorescence polarization (FPt) in absence of the compound in each data set was defined as 100% activity. In the absence of PDE and the compound, the value of fluorescent polarization (FPb) in each data set was defined as 0% activity. The percent activity in the presence of the compound was calculated according to the following equation: % activity=(FP−FPb)/(FPt−FPb)×100%, where FP=the fluorescence polarization in the presence of the compound. The values of % activity versus a series of compound concentrations were then plotted using non-linear regression analysis of sigmoidal dose-response curve generated with the equation Y=B+(T−B)/1+10^(LogEC50−X)×Hill Slope), where Y=percent activity, B=minimum percent activity, T=maximum percent activity, X=logarithm of compound and Hill Slope=slope factor or Hill coefficient. The IC50 value was determined by the concentration causing a half-maximal percent activity.

[1] = Hepatocyte metabolism (stability in cryopreserved hepatocytes); settings: human hepatocytes
Experimental: (§4) A 2.5 uL aliquot of 100 μM test compound was incubated with 247.5 uL of cryopreserved hepatocytes suspended in serum-free incubation medium at 1 million viable cells/mL. The mixture was incubated at 37° C. and shaken at 500 rpm for the designated time points (0.5, 5, 10, 15, 30, 60, 90, or 120 min). At each time point, 25 uL aliquot of incubation mixture was transferred to 125 uL of cold acetonitrile containing internal standard, followed by centrifugation for 30 min at 3,220 g. 100 uL of supernatant was mixed with 100 uL of distilled water for analysis by LC-MS/MS. Peak area ratios were determined from extracted ion chromatograms and percent recovery was calculated.

SERT = SERT (Homo sapiens (Human), UniProt P31645); test: SERT inhibition assay (Neurotransmitter Transporter fluorescence uptake, stable 5HTT HEK293 cells); type: cell-based; settings: n=6 ± SD
Experimental: SERT inhibition was measured using a Neruotransmitter Transportation Fluorescence assay. Briefly, stable 5HTT HEK293 cells were prepared in a 384 microwell plate (20,000 cells per 20 μL well). Compounds were prepared by in assay buffer (20 mM HEPES in HBSS, 0.1% BSA) at a top concentration of 1 μM. 10 doses of test compound (3-fold serial dilution) were added to the plated cells and incubated for 30 minutes at 37° C. 25 μL of dye solution (Molecular Devices Neurotransmitter Transporter Uptake Assay Kit) was added per well and incubated for 30 minutes at 37° C.

in vitro = settings: human hepatocytes
Experimental: as §4

PDE4D2 = PDE4D2 (Homo sapiens (Human), UniProt Q08499); test: PDE4 inhibition assay (fluorescence polarization), PDE4D2; type: biochemical
Sequence of PDE4D2 (Q08499 303-809): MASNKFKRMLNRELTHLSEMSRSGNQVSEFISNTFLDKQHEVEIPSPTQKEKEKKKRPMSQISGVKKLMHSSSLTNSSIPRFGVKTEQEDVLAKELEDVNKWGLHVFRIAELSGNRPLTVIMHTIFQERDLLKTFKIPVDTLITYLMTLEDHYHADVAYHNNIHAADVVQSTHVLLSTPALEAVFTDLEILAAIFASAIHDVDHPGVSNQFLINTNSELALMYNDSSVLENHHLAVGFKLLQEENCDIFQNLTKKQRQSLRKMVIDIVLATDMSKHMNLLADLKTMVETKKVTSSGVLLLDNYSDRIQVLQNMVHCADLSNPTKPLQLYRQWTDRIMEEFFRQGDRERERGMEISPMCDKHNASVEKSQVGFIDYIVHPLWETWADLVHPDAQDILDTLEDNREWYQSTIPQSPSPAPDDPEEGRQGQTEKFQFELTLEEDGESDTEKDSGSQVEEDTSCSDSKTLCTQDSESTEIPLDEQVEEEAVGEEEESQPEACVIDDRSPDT
Experimental: as §1, §2, §3

in vivo = settings: beagle, dog
Description: (§5) HPLC Instrument: Shimsadzu (DGU-20A5R, Serial No: L20705621435 IX; LC-30AD Serial No: L20555611905 AE and L20555611816 AE; SIL-L30AC, Serial No: L20565605499 AE; Rack Changer II Serial No. L20585601125 SS; CTO20A: Serial No. L20205620413 CD; CBM-20A: Serial No. L20235636200 CD) • MS: AB API 5500 LC/MS/MS instrument (Serial No. EF221221812) • Column: Phenomenex Synergi 2.5 μm Polar-RP 100A. (50×3 mm) • Mobile Phase: (A) 5% Acetonitrile in Water (0.1% Formic acid); (B) 95% Acetonitrile in Water (0.1% Formic acid) • Samples: 50 μL of plasma sample+5 μL of blank solution+200 μL of acetonitrile for PPE (protein precipitation extraction).
(§6) The desired serial concentrations of working solutions were achieved by diluting stock solution of analyte with 50% acetonitrile in water solution. 5 μL of working solutions (5, 10, 20, 50, 100, 500, 1000, 5000, 10000 ng/mL) were added to 50 μL of the blank Beagle Dog plasma to achieve calibration standards of 0.5˜1000 ng/mL (0.5, 1, 2, 5, 10, 50, 100, 500, 1000 ng/mL) in a total volume of 55 μL. Five quality control samples at 1 ng/mL, 2 ng/mL, 5 ng/mL, 50 ng/mL and 800 ng/mL for plasma were prepared independently of those used for the calibration curves. These QC samples were prepared on the day of analysis in the same way as calibration standards.
(§7) 55 μL standards, 55 μL QC samples and 55 μL unknown samples 50 μL plasma with 5 μL blank solution) were added to 200 μL of acetonitrile containing IS mixture for precipitating protein respectively. Then the samples were vortexed for 30 s. After centrifugation at 4 degree Celsius, 3900 rpm for 15 min, the supernatant was diluted 3 times with water.

mouse behavior = test: SmartCube system behavioral signature in mice; type: in vivo
Description: To confirm that compound 018 and Compound 019 has antidepressant effects, the SmartCube® system (Psychogenics, Inc., Paramus, NJ) was used. This system uses features derived from mouse behavioral data to classify compounds for their ability to treat neuro-psychiatric symptoms by comparing the features to a proprietary reference database of behavioral feature sets that are linked to classes of marketed drugs known to treat neuro-psychiatric symptoms. Thus the system can be used as a model to identify the psychiatric effect of a compound by comparing the effects of the compounds against drugs with known validated effects. By comparing the responses of animals to known drugs, the test drug can be categorized according to its function; for example, hallucinogen, anxiogenic, analgesic, cognitive enhancer, psychostimulant, mood stabilizer, high dose anti-psychotic, anti-psychotic, sedative/hypnotic, anxiolytic, high dose antidepressant, antidepressant.
Once all features are extracted from the raw data through an automated pipeline, proprietary bioinformatics algorithms are used to decorrelate groups of features and find the combination of values that best separate different groups of interest. For each compound, at each dose, they system provides a probability that the drug is active and breaks down such putative activity into the different classes of interest.
Mice were tested in the SmartCube® system where they were exposed to a sequence of challenges during the 45-minute test period. The cubes were cleaned between each run.
For class and subclass analysis, a reference data set has been built from hundreds of drug doses in multiple drug classes plus a control group. Each reference drug was tested at multiple doses appropriate for that drug in mice. The best performing classifiers were chosen from our evaluation tests and two separate types of classifiers were built that make independent predictions at drug class and subclass levels. The Class consists of drugs that are currently in the market or have been clinically validated for that specific indication. The sub-class consists of both marketed drugs and other compounds that have been mechanistically validated and is a larger set than the Class.
Data was processed using proprietary computer vision and data mining algorithms and the results were compared to signatures of the reference compounds in our database. Multiple analyses of the data was performed to quantitatively produce independent predictions of drug class, and drug subclass. The behavioral signatures of the test drug were evaluated using these classifiers to predict potential therapeutic utility.

[2] = beagle, dog, in vivo
Description: as §5, §6, §7

PDE4A1A = PDE4A1A (Homo sapiens (Human), UniProt P27815); test: PDE4 inhibition assay (fluorescence polarization), PDE4A1A; type: biochemical
Sequence of PDE4A1A (P27815 other isoform, or with tags, fused parts or gaps): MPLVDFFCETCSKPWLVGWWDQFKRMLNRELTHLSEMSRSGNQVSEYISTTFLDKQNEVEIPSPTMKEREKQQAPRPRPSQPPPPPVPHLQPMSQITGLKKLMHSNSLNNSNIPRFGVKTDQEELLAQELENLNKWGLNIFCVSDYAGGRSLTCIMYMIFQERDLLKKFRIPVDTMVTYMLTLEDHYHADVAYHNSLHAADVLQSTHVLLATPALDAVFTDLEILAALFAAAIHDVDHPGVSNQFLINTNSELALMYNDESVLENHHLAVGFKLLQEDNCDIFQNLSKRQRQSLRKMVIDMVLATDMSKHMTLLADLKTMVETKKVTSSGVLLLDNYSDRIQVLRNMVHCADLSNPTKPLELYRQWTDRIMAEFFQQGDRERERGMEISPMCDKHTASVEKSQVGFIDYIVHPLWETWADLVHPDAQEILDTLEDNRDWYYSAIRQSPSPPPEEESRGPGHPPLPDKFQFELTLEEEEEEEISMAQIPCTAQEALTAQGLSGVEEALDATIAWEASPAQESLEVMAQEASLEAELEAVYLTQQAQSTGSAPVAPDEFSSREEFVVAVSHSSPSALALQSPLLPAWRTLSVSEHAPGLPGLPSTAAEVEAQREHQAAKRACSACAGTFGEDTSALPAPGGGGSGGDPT
Experimental: as §1, §2, §3

[3] = human, 1 µM
Experimental: as §4

PDE4C1 = PDE4C1 (Homo sapiens (Human), UniProt Q08493); test: PDE4 inhibition assay (fluorescence polarization), PDE4C1; type: biochemical
Sequence of PDE4C1 (Q08493 whole entry): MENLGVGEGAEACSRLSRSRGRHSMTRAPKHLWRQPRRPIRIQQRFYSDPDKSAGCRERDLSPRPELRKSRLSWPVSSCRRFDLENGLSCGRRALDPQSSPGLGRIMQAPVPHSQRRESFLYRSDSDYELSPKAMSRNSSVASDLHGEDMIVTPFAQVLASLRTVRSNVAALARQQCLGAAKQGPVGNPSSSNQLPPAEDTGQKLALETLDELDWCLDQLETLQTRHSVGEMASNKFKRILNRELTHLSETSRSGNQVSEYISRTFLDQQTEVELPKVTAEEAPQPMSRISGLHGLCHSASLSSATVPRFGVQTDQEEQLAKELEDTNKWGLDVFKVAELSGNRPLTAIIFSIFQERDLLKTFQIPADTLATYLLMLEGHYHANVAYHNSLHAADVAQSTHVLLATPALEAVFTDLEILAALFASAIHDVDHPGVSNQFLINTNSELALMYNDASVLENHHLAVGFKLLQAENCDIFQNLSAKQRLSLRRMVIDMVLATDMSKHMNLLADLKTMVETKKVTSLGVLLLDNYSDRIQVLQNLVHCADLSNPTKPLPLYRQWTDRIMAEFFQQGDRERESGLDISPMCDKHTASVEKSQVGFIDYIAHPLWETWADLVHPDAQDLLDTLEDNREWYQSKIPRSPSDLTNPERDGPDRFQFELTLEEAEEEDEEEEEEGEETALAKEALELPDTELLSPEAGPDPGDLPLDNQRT
Experimental: as §1, §2, §3

5-HT transporter (SERT) = 5-HT transporter (SERT) (Homo sapiens (Human), UniProt P31645); settings: cited from earlier work
[4] = Pharmacokinetic profile in dogs (IV and PO); settings: dog, mean n=3
Description: as §5, §6, §7

Sequence of PDE4B2 (Q07343 other isoform, or with tags, fused parts or gaps): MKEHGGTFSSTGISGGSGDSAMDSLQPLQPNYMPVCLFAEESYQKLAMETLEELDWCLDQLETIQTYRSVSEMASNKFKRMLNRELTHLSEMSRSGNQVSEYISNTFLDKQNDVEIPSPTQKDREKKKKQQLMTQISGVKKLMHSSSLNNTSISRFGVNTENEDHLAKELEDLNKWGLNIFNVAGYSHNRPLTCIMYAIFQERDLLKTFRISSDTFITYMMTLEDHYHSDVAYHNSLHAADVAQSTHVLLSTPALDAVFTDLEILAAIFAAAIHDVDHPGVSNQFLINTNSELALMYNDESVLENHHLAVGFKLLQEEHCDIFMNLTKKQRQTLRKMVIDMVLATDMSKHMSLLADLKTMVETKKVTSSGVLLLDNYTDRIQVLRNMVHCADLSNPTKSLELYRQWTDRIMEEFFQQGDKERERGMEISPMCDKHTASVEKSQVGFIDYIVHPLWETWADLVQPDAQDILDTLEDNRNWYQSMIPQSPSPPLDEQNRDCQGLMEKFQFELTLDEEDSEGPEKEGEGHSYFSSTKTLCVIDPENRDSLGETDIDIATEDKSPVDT

Q: What does the source list for `COc1ccc([C@@]23CC[C@@H](O)C[C@@H]2N(C)CC3)cc1OC` [Compound 018, (3aS,6R,7aS)-3a-(3,4-dimethoxyphenyl)-1-methyloctahydro-1H-indol-6-ol]?
A: PDE4B2 % INH @ 10 μM (PDE4B2): 3%; inhibition at 10 µM (PDE4B2; read-out: PDE4B2 % INH @ 10 μM): ≤ 5%; Extraction Ratio [1]: 0.13; t1/2 [1]: >2 h; IC50 (SERT): 21.9 ± 8 nM; CLint scaled at 1 µM (in vitro): 3 mL/min/kg; half-life at 1 µM (in vitro): > 2 h; hepatocyte CLint at 1 µM (in vitro): 1 µL/min/1e6 cells; PDE4D2 %INH @ 10 μM (PDE4D2; 10 μM): 4%; inhibition at 10 µM (PDE4D2; 10 μM, read-out: PDE4D2 %INH @ 10 μM): ≤ 5%; AUC(0-inf) (in vivo; iv, 2 mg/kg): 712 ng·h/mL; AUC(0-t) (in vivo; iv, 2 mg/kg): 710 ng·h/mL; C0 (in vivo; iv, 2 mg/kg): 6250 ng/mL; MRT inf (in vivo; iv, 2 mg/kg): 0.71 h; half-life (in vivo; iv, 2 mg/kg): 1.78 h; AUC(0-inf) (in vivo; po, 10 mg/kg): 151 ng·h/mL; AUC(0-t) (in vivo; po, 10 mg/kg): 144 ng·h/mL; Cmax (in vivo; po, 10 mg/kg): 84.4 ng/mL; MRT inf (in vivo; po, 10 mg/kg): 3.95 h; Tmax (in vivo; po, 10 mg/kg): 0.28 h; half-life (in vivo; po, 10 mg/kg): 5.95 h; behavioral activity (mouse behavior; mice, 3 mg/kg): < 40%; behavioral activity (in words) (mouse behavior; mice, 3 mg/kg): behaviorally inactive; signature in class and subclass (mouse behavior; mice, 10, 30 and 100 mg/kg): robust antidepressant-like signature with a small portion showing psychostimulant-like signature; AUC_% Extrap_obs ([2]; iv, 2 mg/kg): 0.26%; AUClast/D ([2]; iv, 2 mg/kg): 355; Cl_obs ([2]; iv, 2 mg/kg): 47.6 mL/min/kg; AUC_% Extrap_obs ([2]; po, 10 mg/kg): 5.10%; AUClast/D ([2]; po, 10 mg/kg): 14.4; F ([2]; po, 10 mg/kg): 4.3%; PDE4A1A % INH @ 10 μM (PDE4A1A; 10 μM): 5%; inhibition at 10 µM (PDE4A1A; 10 μM, read-out: PDE4A1A % INH @ 10 μM): ≤ 5%; % QH [3]: 13%; CLHB [3]: 3 mL/min/kg; PDE4C1 % INH @ 10 μM (PDE4C1): 1%; PDE4C1 % INH @ 10 μM (PDE4C1; listed as Compound 18): no more than 5%

Q: Which results are given for `COc1ccc(C23C=CC(O)CC2N(C)CC3)cc1OC` [Compound 020, (S, R, S) Mesembrenol]?
A: PDE4B2 % INH @ 10 μM (PDE4B2): 62%; PDE4D2 %INH @ 10 μM (PDE4D2; 10 μM): 72%; PDE4A1A % INH @ 10 μM (PDE4A1A; 10 μM): 68%; PDE4C1 % INH @ 10 μM (PDE4C1): 32%

Q: With `COc1ccc(C23C=CC(O)CC2N(C)CC3)cc1OC` [Compound 021, (R, R, S) Mesembrenol] as the compound, how does the “PDE4B2 % INH @ 10 μM” value (PDE4B2) read?
A: The value was 12%.

Q: And the “PDE4D2 %INH @ 10 μM” value (PDE4D2; 10 μM)?
A: Its value is 15%.

Q: And the “PDE4A1A % INH @ 10 μM” value (PDE4A1A; 10 μM)?
A: Its value is 22%.

Q: And the “PDE4C1 % INH @ 10 μM” value (PDE4C1)?
A: The value was 7%.

Q: With `COc1ccc(C23C=CC(O)CC2N(C)CC3)cc1OC` [Compound 023, (R, S, R) Mesembrenol] as the compound, how does the “PDE4B2 % INH @ 10 μM” value (PDE4B2) read?
A: The value was 16%.

Q: And the “PDE4D2 %INH @ 10 μM” value (PDE4D2; 10 μM)?
A: The value was 21%.

Q: And the “PDE4A1A % INH @ 10 μM” value (PDE4A1A; 10 μM)?
A: Its value is 15%.

Q: What about the “PDE4C1 % INH @ 10 μM” value (PDE4C1) of the same compound?
A: The value was 9%.

Q: For `COc1ccc(C23C=CC(O)CC2N(C)CC3)cc1OC` [Compound 024, (S, S, R) Mesembrenol], which “PDE4B2 % INH @ 10 μM” value (PDE4B2) is on record?
A: Its value is 55%.

Q: What about the “PDE4D2 %INH @ 10 μM” value (PDE4D2; 10 μM) of the same compound?
A: Its value is 53%.

Q: What about the “PDE4A1A % INH @ 10 μM” value (PDE4A1A; 10 μM) of the same compound?
A: The value was 45%.

Q: What about the “PDE4C1 % INH @ 10 μM” value (PDE4C1) of the same compound?
A: Its value is 18%.

Q: For `COc1ccc(C23C=CC(O)CC2N(C)CC3)cc1OC` (stereo not shown) [Mesembrenol], which Ki (5-HT transporter (SERT); binding to the 5-HT transporter, isolated alkaloids) is on record?
A: Its Ki is 62 nM.

Q: And the nH (5-HT transporter (SERT); concentration response curves, 5-HT transporter)?
A: The nH was 1.1.

Q: Which results are given for (+) Mesembrine [Compound 002]?
A: PDE4D2 %INH @ 10 μM (PDE4D2; 10 μM): 54%; PDE4A1A % INH @ 10 μM (PDE4A1A; 10 μM): 56%; PDE4C1 % INH @ 10 μM (PDE4C1): 26%

Q: Which results are given for (−) Mesembrine [Compound 001]?
A: % QH [1]: 86%; CLHB [1]: 18 mL/min/kg; Hepatocyte Clint [1]: 55 μL/min/10^6 cells; t1/2 [1]: 0.217 h; CLint ([1]; scaled): 131 mL/min/kg; AUCInf ([4]; IV 2 mg/kg): 809 ng·h/mL; AUC_% Extrap_obs ([4]; IV 2 mg/kg): 0.53%; AUClast ([4]; IV 2 mg/kg): 805 ng·h/mL; AUClast/D ([4]; IV 2 mg/kg): 402; C0 ([4]; IV 2 mg/kg): 1226 ng/mL; Cl_obs ([4]; IV 2 mg/kg): 44.07 mL/min/kg; MRTInf_obs ([4]; IV 2 mg/kg): 1.41 h; T1/2 ([4]; IV 2 mg/kg): 1.65 h; AUCInf ([4]; PO 10 mg/kg): 3113.0 ng·h/mL; AUC_% Extrap_obs ([4]; PO 10 mg/kg): 0.25%; AUClast ([4]; PO 10 mg/kg): 3106.9 ng·h/mL; AUClast/D ([4]; PO 10 mg/kg): 310.7; Cmax ([4]; PO 10 mg/kg): 1878.0 ng/mL; F ([4]; PO 10 mg/kg): 76.9%; MRTInf_obs ([4]; PO 10 mg/kg): 1.81 h; T1/2 ([4]; PO 10 mg/kg): 2.99 h; Tmax ([4]; PO 10 mg/kg): 0.28 h; IC50 (PDE4D2): 2700 nM; IC50 (PDE4A1A): 4300 nM; IC50 (PDE4C1): 15000 nM
